What was measured:
Experiment in all cases: cryo-EM structure of phycobilisome
Format in all cases: binding
ApcE = molecular target: T1, ApcE (Gloeobacter violaceus, UniProt Q7NL81); conditions: covalent; terminal emitter, D ring stacks on Trp162; ring conformation not resolved without restraints
T1 construct: native, within isolated GraFix cross-linked phycobilisome; bilin in N-terminal alpha-like domain, in third AP trimer of basal cylinders
T1 sequence (Q7NL81 1-1155): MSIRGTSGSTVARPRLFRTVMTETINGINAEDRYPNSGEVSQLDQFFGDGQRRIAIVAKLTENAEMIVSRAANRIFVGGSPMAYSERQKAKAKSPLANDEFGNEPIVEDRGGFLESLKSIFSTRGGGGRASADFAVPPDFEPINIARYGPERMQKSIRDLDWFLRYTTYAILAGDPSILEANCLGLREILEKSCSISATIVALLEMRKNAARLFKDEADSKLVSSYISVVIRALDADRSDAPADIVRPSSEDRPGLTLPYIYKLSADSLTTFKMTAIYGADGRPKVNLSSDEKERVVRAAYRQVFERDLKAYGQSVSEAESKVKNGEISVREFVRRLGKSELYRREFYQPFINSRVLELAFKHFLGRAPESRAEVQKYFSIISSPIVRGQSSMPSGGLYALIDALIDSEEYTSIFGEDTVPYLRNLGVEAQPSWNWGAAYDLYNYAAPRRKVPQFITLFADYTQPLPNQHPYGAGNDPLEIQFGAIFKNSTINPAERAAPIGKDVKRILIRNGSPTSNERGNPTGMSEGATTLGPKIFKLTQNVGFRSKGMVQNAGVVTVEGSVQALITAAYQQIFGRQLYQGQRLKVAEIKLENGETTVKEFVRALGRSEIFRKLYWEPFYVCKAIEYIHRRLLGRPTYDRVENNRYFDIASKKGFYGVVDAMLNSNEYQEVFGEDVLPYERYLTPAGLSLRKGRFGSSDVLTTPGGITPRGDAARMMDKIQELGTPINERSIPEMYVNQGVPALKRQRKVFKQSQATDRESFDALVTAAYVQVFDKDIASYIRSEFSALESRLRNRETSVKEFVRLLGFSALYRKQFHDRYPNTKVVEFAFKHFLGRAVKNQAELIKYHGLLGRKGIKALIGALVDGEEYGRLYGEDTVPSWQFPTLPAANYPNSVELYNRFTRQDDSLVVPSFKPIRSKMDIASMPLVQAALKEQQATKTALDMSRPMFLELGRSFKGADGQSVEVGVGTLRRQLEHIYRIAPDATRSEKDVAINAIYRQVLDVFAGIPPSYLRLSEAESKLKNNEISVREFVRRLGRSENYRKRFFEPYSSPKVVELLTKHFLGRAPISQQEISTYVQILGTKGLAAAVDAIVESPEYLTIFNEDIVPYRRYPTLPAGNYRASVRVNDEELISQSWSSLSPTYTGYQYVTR

allophycocyanin (AP) = molecular target: T2, allophycocyanin (AP) (Gloeobacter violaceus, UniProt Q7NL79+Q7NL80); conditions: covalent; one bilin on each alpha and beta subunit
T2 construct: gene apcA; native, (αβ)3 trimers of the pentacylindrical core in isolated GraFix cross-linked phycobilisome
T2 sequence (Q7NL80 1-161): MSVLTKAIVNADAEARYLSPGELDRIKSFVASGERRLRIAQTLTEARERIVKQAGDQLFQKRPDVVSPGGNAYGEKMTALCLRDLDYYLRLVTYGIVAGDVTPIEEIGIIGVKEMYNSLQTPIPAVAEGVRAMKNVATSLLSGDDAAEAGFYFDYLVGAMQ
T2 sequence (Q7NL79 1-161): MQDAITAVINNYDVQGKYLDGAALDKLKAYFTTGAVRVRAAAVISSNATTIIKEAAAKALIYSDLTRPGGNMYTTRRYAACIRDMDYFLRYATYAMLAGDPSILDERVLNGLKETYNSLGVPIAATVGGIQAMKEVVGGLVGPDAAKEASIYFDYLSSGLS

phycocyanin (PC) = molecular target: T3, phycocyanin (PC) (Gloeobacter violaceus, UniProt Q7M7C7+Q7M7F7); conditions: covalent; one bilin on alpha, two on beta
T3 construct: gene cpcA; native, (αβ)6 hexamers of rods and Rx in isolated GraFix cross-linked phycobilisome
T3 sequence (Q7M7F7 1-162): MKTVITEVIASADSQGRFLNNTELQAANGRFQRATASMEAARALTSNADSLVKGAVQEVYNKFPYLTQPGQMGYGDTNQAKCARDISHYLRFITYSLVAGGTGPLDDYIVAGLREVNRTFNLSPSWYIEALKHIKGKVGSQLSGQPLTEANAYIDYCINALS
T3 sequence (Q7M7C7 1-172): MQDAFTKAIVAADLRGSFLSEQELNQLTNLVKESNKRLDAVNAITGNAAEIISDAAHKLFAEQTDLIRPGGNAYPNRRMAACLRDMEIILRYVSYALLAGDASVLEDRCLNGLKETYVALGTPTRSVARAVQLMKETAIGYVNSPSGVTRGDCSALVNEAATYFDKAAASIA

CC=C1C(=Cc2[nH]c(C=C3N=C(C=C4NC(=O)C(CC)=C4C)C(C)=C3CCC(=O)O)c(CCC(=O)O)c2C)NC(=O)C1C (stereo not drawn) [phycocyanobilin]
cryo-EM structure of phycobilisome (ApcE): resolved in cryo-EM density map, including the terminal emitting bilin in ApcE | cryo-EM structure of phycobilisome (allophycocyanin (AP)): PCB conformations within PC hexamers in rods and AP hexamers in the core were resolved | cryo-EM structure of phycobilisome (phycocyanin (PC)): PCB conformations within PC hexamers in rods and AP hexamers in the core were resolved
